Reference: ChEMBL document CHEMBL5126522, “In vitro and in vivo evaluation of 211At-labeled fibroblast activation protein inhibitor for glioma treatment” (Bioorg Med Chem, 2022)
The source made the active and inactive calls.

Assays:
U-87MG ATCC [1] = experiment: Antitumor activity against human U-87 MG cells xenografted in BALB/c nude mouse assessed as reduction in Ki67 expression in tumor at 0.55 MBq, it measured after 12 days by immunohistochemical analysis; type: functional, cell-based; details: time 12.0 day, tested as the 211At-labelled form
U-87MG ATCC [2] = experiment: Inhibition of colony formation in human U-87 MG cells incubated in radioactive medium for 12 hrs followed by incubation in non-radioactive medium for 14 days by crystal violet staining based analysis; type: functional, cell-based; details: dose 4.6-18.5 kBq, time 852.0 hrs, tested as the 211At-labelled form, DDE = dose-dependent effect
U-87MG ATCC [3] = experiment: Induction of apoptosis in human U-87 MG cells assessed as fragmented and condensed chromatin at 18.5 to 185 kBq measured after 24 hrs by DAPI staining based confocal microscopy; type: functional, cell-based; details: dose 18.5-185 kBq, tested as the 211At-labelled form
U-87MG ATCC [4] = experiment: Anti-tumor activity against human U-87 MG cells xenografted in BALB/c nude mouse assessed as reduction in tumor growth administered IT measured every 3 days by electronic caliper analysis; type: functional; details: dose 0.18-0.55 MBq, DDE = dose-dependent effect, tested as the 211At-labelled form
U-87MG ATCC [5] = experiment: Cytotoxicity against human U-87 MG cells assessed as reduction in cell viability incubated in radioactive medium for 12 hrs followed by incubation in non-radioactive medium for 24 hrs by CCK8 assay; type: functional, cell-based; details: dose 12-92 kBq, time 36.0 hrs, tested as the 211At-labelled form, DDE = dose-dependent effect
U-87MG ATCC [6] = experiment: Induction of cell cycle arrest in human U-87 MG cells assessed as increase in proportion of cells at S phase at 185 kBq incubated in radioactive medium for 12 hrs followed by incubation in non-radioactive medium for 24 hrs by PI staining based flow cytometry; type: functional; details: time 36.0 hrs, tested as the 211At-labelled form

N#C[C@@H]1CC(F)(F)CN1C(=O)CNC(=O)c1ccnc2ccc(OCCCN3CCN(C(=O)c4ccc([At])cc4)CC3)cc12
active: Activity (U-87MG ATCC [1]) | inhibition (U-87MG ATCC [2]) Dde | Activity (U-87MG ATCC [3]) | Activity (U-87MG ATCC [4]) Dde | Activity (U-87MG ATCC [5]) Dde | Activity (U-87MG ATCC [6])
